Source: patent US7494996B2 (priority 2000, dated 2009)

What was measured:
Sphaerotheca fuliginea = test: Cucumber Powdery Mildew (CPM) protectant test in the greenhouse; assay type: in vivo; settings: 300 g/ha, 100 is total disease control, 0 is no disease control
In short: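 Compounds in acetone-methanol-water (1:1:2) sprayed onto cucumber cv. "Bush Champion" (cotyledons plus one true leaf, 13 days old), dried 4 h. Inoculated 1 day later with 2×10^5 spores/ml; disease control (%) rated after 7 days in greenhouse.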

Pyricularia oryzae = test: whole plant or invertebrate; assay type: in vivo; settings: protectant, 300 g/ha, greenhouse; 100 is total disease control, 0 is no disease control

SMILES | Cucumber Powdery Mildew (CPM) protectant fungicide data, percent control (Sphaerotheca fuliginea) [percent control] | Rice Blast (RB) protectant fungicide data, percent control (Pyricularia oryzae) [percent control]
CCCCOc1ccc(C2=NN(CCC#N)C(=O)CN2)cc1 [Compound 160] | 0 | 75
CCOc1ccc(C2=NN(c3ccc(Cl)cc3)C(=O)CN2)cc1 [Compound 161] | 0 | 80
CCCCN1N=C(c2cc3ccccc3s2)NCC1=O [Compound 162] | 50 | 95
CCCN1N=C(c2cc(Cl)cc(Cl)c2)NCC1=O [Compound 164] | 95 | 100
CCOC(=O)CN1N=C(c2cccc(C)c2)NCC1=O [Compound 165] | 0 | 80
N#CCCN1N=C(c2ccc(-c3ccc([N+](=O)[O-])cc3)cc2)NCC1=O [Compound 166] | 0 | 75
O=C1CNC(c2cccc([N+](=O)[O-])c2)=NN1CC(F)(F)F [Compound 167] | 0 | 85
C#CCN1CC(=O)N(CCCC)N=C1c1ccc(Cl)c(Cl)c1 [Compound 168] | 50 | 95
C#CCN1CC(=O)N(CC(F)(F)F)N=C1c1cc(Cl)cc(Cl)c1 [Compound 169] | 0 | 50
C=CCOC(=O)N1CC(=O)N(CCCC)N=C1c1ccc(Cl)c(Cl)c1 [Compound 170] | 75 | 90
C#CCOC(=O)N1CC(=O)N(CCCC)N=C1c1ccc(Cl)c(Cl)c1 [Compound 171] | 50 | 80
C=CCOC(=O)N1CC(=O)N(CCCC)N=C1c1ccc(Cl)c(Cl)c1 [Compound 172] | 0 | 98
CCCCN1N=C(c2ccc(Cl)c(Cl)c2)N(C(=O)Oc2ccccc2)CC1=O [Compound 173] | 0 | 50
O=C1CNC(c2ccc(Cl)c(Cl)c2)=NN1 [Compound 174] | 0 | 75
CCCCN1N=C(c2cccc(C#N)c2)NCC1=O [Compound 175] | 0 | 95
N#Cc1cccc(C2=NN(CC(F)(F)F)C(=O)CN2)c1 [Compound 176] | 50 | 50
CC=CC(=O)N1CC(=O)N(CCCC)N=C1c1ccc(Cl)c(Cl)c1 [Compound 177] | 50 | 95
CCCCN1N=C(c2ccc(Cl)c(Cl)c2)N(C(=S)Oc2ccccc2)CC1=O [Compound 178] | 0 | 75
CCCCN1N=C(c2ccc(Cl)c(Cl)c2)N(C(=O)OCCCl)CC1=O [Compound 179] | 0 | 75
CCC#CCN1CC(=O)N(CCCC)N=C1c1ccc(Cl)c(Cl)c1 [Compound 180] | 90 | 95
CCCCN1N=C(c2ccc(Cl)c(Cl)c2)N(C(=O)C2CC2)CC1=O [Compound 181] | 0 | 50
CCCCN1N=C(c2ccc(Cl)c(Cl)c2)N(Cc2ccccc2)CC1=O [Compound 182] | 0 | 85
O=C1CNC(c2cccc([N+](=O)[O-])c2)=NN1Cc1ccccc1 [Compound 184] | 75 | 85
O=C1CNC(c2ccccn2)=NN1Cc1ccccc1 [Compound 185] | 75 | 80

SMILES | Cucumber Powdery Mildew (CPM) protectant fungicide data, percent control (Sphaerotheca fuliginea) [percent control] | Rice Blast (RB) protectant fungicide data, percent control (Pyricularia oryzae) [percent control]
Cc1cccc(N2N=C(c3ccc(-c4ccccc4)cc3)NCC2=O)c1 [Compound 186] | 0 | 85
CSc1ccc(C2=NN(c3cccc(C)c3)C(=O)CN2)cc1 [Compound 187] | 0 | 80
Cc1cccc(N2N=C(c3ccc(OCC(F)(F)F)nc3)NCC2=O)c1 [Compound 188] | 0 | 80
CCc1ccc(C2=NN(CCc3ccccc3)C(=O)CN2)cc1 [Compound 189] | 75 | 80
O=C1CNC(c2cc(Cl)nc(Cl)c2)=NN1Cc1ccccc1 [Compound 190] | 0 | 80
C=CCSC(=O)N1CC(=O)N(CCCC)N=C1c1ccc(Cl)c(Cl)c1 [Compound 191] | 50 | 95
C#CCSC(=S)N1CC(=O)N(CCCC)N=C1c1ccc(Cl)c(Cl)c1 [Compound 192] | 75 | 99
O=C1CN(C(=O)Oc2ccccc2)C(c2cc(Cl)cc(Cl)c2)=NN1CC(F)(F)F [Compound 193] | 0 | 80
CCCCN1N=C(c2cc(Cl)cc(Cl)c2)N(C(=O)Oc2ccccc2)CC1=O [Compound 194] | 0 | 80
CCCCN1N=C(c2ccccc2OC)NCC1=O [Compound 195] | 50 | 99
O=C1CNC(c2ccc(Cl)c(Cl)c2)=NN1c1cccc(Cl)c1 [Compound 196] | 0 | 99
CCCCCN1N=C(c2ccc(Cl)c(Cl)c2)NCC1=O [Compound 197] | 75 | 99
CCOC(=O)N1N=C(c2cccc(Cl)c2)NCC1=O [Compound 198] | 0 | 80
CCCCN1N=C(c2ccc(Cl)c(Cl)c2)N(Cc2ccc(OC)cc2)CC1=O [Compound 199] | 0 | 90
CCCCN1N=C(c2ccc(Cl)c(Cl)c2)N(Cc2ccc(OC)c(OC)c2)CC1=O [Compound 200] | 0 | 85
CCCCN1N=C(c2ccc(Cl)c(Cl)c2)N(CC2CCC2)CC1=O [Compound 201] | 0 | 85
C=CC1NC(c2ccc(Cl)c(Cl)c2)=NN(CCCC)C1=O (stereo not shown) [Compound 202] | 0 | 90
C=C(C)C1NC(c2ccc(Cl)c(Cl)c2)=NN(CCCC)C1=O (stereo not shown) [Compound 203] | 0 | 85
CCCCC1=NN(c2ccc(Cl)cc2)C(=O)CN1 [Compound 204] | 85 | 75
CCCCN1N=C(c2ccc(-c3ccc(C(=O)OCC)cc3)cc2)NCC1=O [Compound 206] | 80 | 85
CCCCN1N=C(c2ccc(F)c(Br)c2)NCC1=O [Compound 207] | 85 | 100
O=C1CNC(c2ccc(F)c(Br)c2)=NN1CC(F)(F)F [Compound 208] | 50 | 95
CCC#CCN1CC(=O)N(CC#CCC)N=C1c1ccc(Cl)c(Cl)c1 [Compound 209] | 0 | 75
